Results from ChEMBL document CHEMBL5244211, “Current anti-diabetic agents and their molecular targets: A review” (Eur J Med Chem, 2018).

What was measured:
[1] = biological target: T1, Fructose-1,6-bisphosphatase 1 (Homo sapiens, UniProt P09467); assay: Inhibition of FBPase (unknown origin)
T1 sequence (P09467 whole entry): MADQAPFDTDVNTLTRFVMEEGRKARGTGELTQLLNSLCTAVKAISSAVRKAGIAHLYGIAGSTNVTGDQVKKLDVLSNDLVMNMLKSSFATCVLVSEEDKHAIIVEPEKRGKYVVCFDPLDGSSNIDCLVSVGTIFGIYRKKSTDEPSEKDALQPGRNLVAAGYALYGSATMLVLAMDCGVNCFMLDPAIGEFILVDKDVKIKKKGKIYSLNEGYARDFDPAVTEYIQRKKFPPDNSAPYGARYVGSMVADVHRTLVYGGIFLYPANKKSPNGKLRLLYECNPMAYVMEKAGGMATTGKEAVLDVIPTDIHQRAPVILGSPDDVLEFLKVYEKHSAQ

[2] = biological target: T2, Tyrosine-protein phosphatase non-receptor type 1 (Homo sapiens, UniProt P18031); assay: Inhibition of PTP1B (unknown origin)
T2 sequence (P18031 whole entry): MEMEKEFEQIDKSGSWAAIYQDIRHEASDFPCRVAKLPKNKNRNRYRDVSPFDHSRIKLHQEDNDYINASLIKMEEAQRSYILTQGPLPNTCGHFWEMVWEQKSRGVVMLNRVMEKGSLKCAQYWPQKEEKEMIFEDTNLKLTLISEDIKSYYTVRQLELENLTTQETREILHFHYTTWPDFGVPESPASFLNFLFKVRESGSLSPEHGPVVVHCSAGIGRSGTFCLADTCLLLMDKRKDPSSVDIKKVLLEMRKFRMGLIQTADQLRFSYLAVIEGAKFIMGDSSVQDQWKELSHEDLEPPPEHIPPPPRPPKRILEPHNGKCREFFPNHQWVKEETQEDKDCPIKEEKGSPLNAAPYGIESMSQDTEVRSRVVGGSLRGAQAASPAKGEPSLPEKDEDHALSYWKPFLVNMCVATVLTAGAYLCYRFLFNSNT

[3] = Inhibition of bovine kidney ALR1 in presence of NADPH by UV spectrophotometric analysis; format: tissue-based, Bos taurus
[4] = Inhibition of Calf ALR2 in presence of NADPH by UV spectrophotometric analysis; parameters: species or system Bos taurus
Dipeptidyl peptidase 4 [5] = biological target: T3, Dipeptidyl peptidase 4 (Homo sapiens, UniProt P27487); assay: Inhibition of DPP4 (unknown origin) using Gly-Pro-AMC as substrate incubated for 20 mins by spectroscopic analysis
T3 sequence (P27487 whole entry): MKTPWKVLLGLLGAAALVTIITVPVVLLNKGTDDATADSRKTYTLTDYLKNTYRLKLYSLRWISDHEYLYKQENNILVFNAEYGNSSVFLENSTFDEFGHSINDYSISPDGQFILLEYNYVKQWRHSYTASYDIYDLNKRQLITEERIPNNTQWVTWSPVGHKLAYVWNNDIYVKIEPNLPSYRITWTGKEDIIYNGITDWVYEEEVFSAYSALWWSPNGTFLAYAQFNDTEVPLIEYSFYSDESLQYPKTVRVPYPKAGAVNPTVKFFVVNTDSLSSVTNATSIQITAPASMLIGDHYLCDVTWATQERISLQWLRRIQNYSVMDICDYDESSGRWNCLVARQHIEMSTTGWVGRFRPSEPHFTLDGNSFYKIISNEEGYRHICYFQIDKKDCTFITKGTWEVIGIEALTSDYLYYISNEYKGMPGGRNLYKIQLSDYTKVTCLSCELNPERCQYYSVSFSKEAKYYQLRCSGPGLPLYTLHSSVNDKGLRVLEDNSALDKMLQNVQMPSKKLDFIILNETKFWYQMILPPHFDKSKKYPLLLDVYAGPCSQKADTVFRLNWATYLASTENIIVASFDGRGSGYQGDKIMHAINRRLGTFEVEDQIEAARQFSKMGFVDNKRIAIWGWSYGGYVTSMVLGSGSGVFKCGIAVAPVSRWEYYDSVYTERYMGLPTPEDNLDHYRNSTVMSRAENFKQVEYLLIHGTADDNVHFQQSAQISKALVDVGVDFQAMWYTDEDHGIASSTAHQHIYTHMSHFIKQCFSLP

[6] = biological target: T2, Tyrosine-protein phosphatase non-receptor type 1; assay: Inhibition of human GST-tagged PTP1B expressed in Escherichia coli using pNPP as substrate by spectroscopic analysis
Alpha-glucosidase = Alpha-glucosidase (Saccharomyces cerevisiae S288c, UniProt P53341+P38158+P07265); assay: Inhibition of Saccharomyces cerevisiae alpha-glucosidase using p-nitrophenol-alpha-D-glucopyranoside as substrate incubated for 15 mins by spectrophotometric method; format: protein assay
[7] = biological target: T4, Alpha-glucosidase (Saccharomyces cerevisiae S288c) (UniProt P53341+P38158+P07265); assay: Inhibition of Saccharomyces cerevisiae alpha-glucosidase assessed as dissociation rate constant (k1) using p-nitrophenol-alpha-D-glucopyranoside as substrate by Lineweaver-Burk plot analysis; format: protein assay
[8] = biological target: T4, Alpha-glucosidase (Saccharomyces cerevisiae S288c); assay: Inhibition of Saccharomyces cerevisiae alpha-glucosidase assessed as dissociation rate constant (k2) using p-nitrophenol-alpha-D-glucopyranoside as substrate by Lineweaver-Burk plot analysis; format: protein assay
Dipeptidyl peptidase 4 [9] = biological target: T3, Dipeptidyl peptidase 4; assay: Inhibition of DPP4 (unknown origin)
[10] = biological target: T5, Tyrosine-protein phosphatase non-receptor type 2 (Homo sapiens, UniProt P17706); assay: Inhibition of TC-PTP (unknown origin)
T5 sequence (P17706 whole entry): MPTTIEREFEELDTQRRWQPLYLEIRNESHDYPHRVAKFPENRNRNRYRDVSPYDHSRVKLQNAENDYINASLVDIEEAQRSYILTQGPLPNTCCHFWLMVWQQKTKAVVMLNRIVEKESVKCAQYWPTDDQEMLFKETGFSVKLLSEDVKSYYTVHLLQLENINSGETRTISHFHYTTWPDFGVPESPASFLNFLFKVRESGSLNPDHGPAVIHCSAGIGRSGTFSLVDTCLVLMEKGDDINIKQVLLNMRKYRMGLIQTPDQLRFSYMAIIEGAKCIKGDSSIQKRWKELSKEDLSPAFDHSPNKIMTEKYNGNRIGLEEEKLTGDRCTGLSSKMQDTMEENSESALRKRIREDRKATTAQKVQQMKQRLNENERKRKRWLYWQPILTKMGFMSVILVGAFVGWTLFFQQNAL

Homo sapiens [11] = species: Homo sapiens; assay: Selectivity ratio of IC50 for inhibition of TC-PTP (unknown origin) to IC50 for inhibition of PTP1B (unknown origin)
[12] = biological target: T5, Tyrosine-protein phosphatase non-receptor type 2; assay: Inhibition of TC-PTP (unknown origin) using pNPP as substrate incubated for 5 mins by absorbance based analysis
Homo sapiens [13] = species: Homo sapiens; assay: Selectivity ratio of IC50 for inhibition of PTP1B (unknown origin) to IC50 for inhibition of TC-PTP (unknown origin)
Dipeptidyl peptidase 4 [14] = biological target: T3, Dipeptidyl peptidase 4; assay: Inhibition of human recombinant DPP4 using H-Gly-Pro-AMC as substrate incubated for 10 mins by microplate reader analysis

Cc1ccc(-c2nnc(-c3cccc(NC(=O)CCCCO)c3)o2)cc1
IC50 [1]: 5610 nM

Cc1cc(OCc2ccc(C(=O)O)cc2)ccc1/C=C1\SC(=S)N(Cc2ccc(C(=O)O)cc2)C1=O
IC50 [2]: 240 nM

CCCCNCn1nc(-c2cc3ccccc3oc2=O)oc1=S
IC50 [3]: 3360 nM
IC50 [4]: 310 nM

O=C(CNc1nc(Nc2ccc(S(=O)(=O)Nc3nccs3)cc2)nc(N2CCOCC2)n1)Nc1ccc(F)cc1
IC50 (Dipeptidyl peptidase 4 [5]): 2.32 nM

COc1cc(C(=O)c2c(CBr)cc(OC)c(OC)c2Br)c(Br)c(Br)c1OC
IC50 [6]: 2070 nM

CC1=C(CC(=O)O)c2cc(F)ccc2/C1=C\c1ccc([S+](C)[O-])cc1 (configuration not stated)
IC50 [4]: 293 nM

Cc1cc2c(c(=O)[nH]1)C(=O)O/C2=C\c1cc(Br)cs1
IC50 (Alpha-glucosidase): 240 nM
Kdiss [7]: 0.22 µM
Kdiss [8]: 0.25 µM

CC#CCn1c(N2CCC[C@@H](N)C2)nc2c(C)c(=O)n(Cc3nc(C)c4c(Cl)cccc4n3)c(=O)n21
IC50 (Dipeptidyl peptidase 4 [9]): 0.7 nM

O=c1c2cc(O)c(O)cc2oc2cc(O)cc(O)c12
IC50 [2]: 9200 nM

Oc1cc(Cc2cc(O)c(Br)c(Br)c2Br)c(Br)c(Br)c1O
IC50 [2]: 2400 nM

Nc1cc(Cl)ccc1/C(=N/Nc1nc(-c2cc3ccccc3oc2=O)cs1)c1ccccc1
IC50 [3]: 459 nM
IC50 [4]: 110 nM

COc1cc(/C=C2\SC(=S)N(Cc3ccc(C(=O)O)cc3)C2=O)ccc1OCc1ccccc1
IC50 [2]: 1100 nM
IC50 [10]: 3500 nM
Ratio IC50 (Homo sapiens [11]): 2

CC#CCn1c(N2CCC[C@@H](N)C2)nc2c(C)c(=O)n(Cc3nc(C)c4c(F)cccc4n3)c(=O)n21
IC50 (Dipeptidyl peptidase 4 [9]): 0.5 nM

O=C(c1cccc(CN2CCCN(Cc3cccc(C(=O)C(F)(F)P(=O)(O)O)c3)CCN(Cc3cccc(C(=O)C(F)(F)P(=O)(O)O)c3)CCCN(Cc3cccc(C(=O)C(F)(F)P(=O)(O)O)c3)CC2)c1)C(F)(F)P(=O)(O)O
IC50 [12]: 75 nM
Ratio IC50 (Homo sapiens [13]): 14

NNc1nc(NN)nc(N2C(=O)CSC2=O)n1
IC50 (Dipeptidyl peptidase 4 [14]): 6250 nM
